Read-outs that look alike come from different tables or passages of the source.
Key:
[1] = Acute toxicity (lethal dose 50) in the mouse; conditions: in vivo
Source text: The acute toxicity of the deriatives of the invention were studied by oral administration (P.O) to the mouse (10 animals, 5 males and 5 females per dose) and calculation of the lethal dose 50 (LD 50) in accordance with the method of Litchfield and Wilcoxon (J. Pharmacol., 96, 99-113 (1949)). Table 1 gives the LD 50 values of the derivatives of the invention.
In certain cases, the LD 50 was also studied after intraperitoneal injection (I.P.) of the derivatives.

[2] = tested on: isolated guinea pig auricle; assay: Maximum stimulation frequency test on isolated guinea pig auricle; conditions: Cavia porcellus; 10 mg/l; read-out: Δ% MFS (decrease of the maximum frequency followed)
Description: The maximum frequency test carried out studied the maximum stimulation frequency which can cause contraction of an isolated guinea pig auricle placed in a solution containing a derivative of the invention. The measurement was carried out before (control period) and then after introduction of the derivative into the solution.

anesthetized dog = assay: Hemodynamic effects on the anesthetized dog; format: in vivo; conditions: for (dp/dt)l/p, percentage of variation / Cardiac flow, percentage of variation / Cardiac frequency, percentage of variation / Contraction force of the myocardium, percentage of variation / Systolic arterial pressure, percentage of variation / Systolic volume, percentage of variation: Example 2 series, vs pretreatment
Description: Cardiovascular tolerance was studied on the isolated guinea pig auricle, on the anesthetized rat and on the anesthetized dog.
On the anesthetized dog, the results obtained with respect to hemodynamic tolerance are summarized in Table 2 below which indicates the percentages of variation of the hemodynamic parameters in relation to the pre-treatment control period for the derivatives of Examples 2 and 4.
The parameters were recorded by means of:
Catheters connected to pressure sensors (arterial pressure, left ventricular pressure and its first derivative dp/dt);
Electromagnetic flowmeter on the aorta (aortic flow);
Strain gauge placed on the left ventricular myocardium (force of myocardiac contraction).
The derivatives were injected intraveneously, one dose approximately every 30 minutes and their effects were measured 20 minutes after the completion of the injection (length of the injection 2 minutes).

[3] = tested on: ventricular arrhythmias induced by aconitine in the anesthetized rat; assay: Antiarrhythmic test with aconitine on the rat; format: in vivo
Description: The derivatives of the invention were used in the test with aconitine on the rat. For this test, the anesthetized rat was intoxicated by an intravenous perfusion of aconitine (solution of aconitine nitrate: 15 mg/l; speed of perfusion: 0.4 ml/min) while its electrocardiogram was recorded permanently. During perfusion at constant speed, the time necessary for the appearance of ventricular arrhythmias, successively ventricular extrasystoles (ESV), ventricular tachycardium (TV) and ventricular fibrillation (FV) was measured.
The animals were divided into a control group (untreated) and treated group (different doses). The results are expressed as a percentage of prolonging the time of the appearance of the arrhythmias in the treated groups in relation to the control group. This prolongation of arrhythmia appearance time therefore corresponds to myocardiac protection against the arrhythmic effects of aconitine.

rabbit cornea = assay: Local contact anesthesia on the rabbit cornea; format: in vivo; conditions: solution at 0.25% or 1% by weight, eyewash instillation
Source text: For example, the derivatives described in Examples 2, 3, 4, 6, 7 and 9 are local anesthetics (100% anesthesia) in a solution at 0.25% or 1% by weight.

[4] = tested on: anoxic ventricular fibrillation in mice; assay: Cardiac antifibrillatory activity on the mouse (Lawson test); format: in vivo; conditions: ip, intraperitoneal, 10 minutes before chloroform, read-out: ED 50 (protects half the mice against anoxic ventricular fibrillation)
Description: Cardiac antifibrillatory activity of the derivatives of the invention has been verified on the mouse using the Lawson test, in accordance with the method described by J. W. Lawson, J. Pharmacol. Exp. Therp. 160, 22-31 (1968), and C. Narcisse et al., Ann. Pharm. Fr. 37, 325-330 (1979).
The mice (20 per dose) received an intraperitoneal injection of the derivative 10 minutes before being placed in a chloroform saturated atmosphere. As soon as respiratory arrest occurred, the thorax was opened (5 to 10 seconds) and the state of the heart was checked: presence or absence of ventricular fibrillation. The efficacy dose 50 (ED 50) of the derivative being studied is the dose which protects half the mice against anoxic ventricular fibrillation.

[5] = ip, intraperitoneal (I.P.), read-out: LD 50 I.P.
[6] = oral (P.O.), 5 males and 5 females per dose, read-out: LD 50 P.O.
[7] = anesthetized dog, i.v., cumulative dose
[8] = read-out: Prolongation of time of appearance of ventricular extrasystoles (ESV)
[9] = read-out: Prolongation of time of appearance of ventricular fibrillation (FV)
[10] = read-out: Prolongation of time of appearance of ventricular tachycardium (TV)

CN(C)CCCOc1cc(-c2ccc(Cl)cc2)n[nH]1 [Example 1, 3-p-Chlorophenyl-5-dimethylaminopropoxy-pyrazole]
LD50 [1, 5]: 250 to 500 mg/kg | LD50 [1, 6]: 1000 mg/kg | inhibition at 10 µg/mL [2]: 30%

Cc1c(-c2ccccc2)n[nH]c1OCCN1CCCC1 [Example 2, 3-Phenyl-4-methyl-5-pyrrolidinoethoxy-pyrazole]
LD50 [1, 6]: 500 mg/kg | (dp/dt)l/p, percentage of variation (anesthetized dog; i.v., dose 0.5 mg/kg): 0% | Cardiac flow, percentage of variation (anesthetized dog; i.v., dose 0.5 mg/kg): 0% | Cardiac frequency, percentage of variation (anesthetized dog; i.v., dose 0.5 mg/kg): 0% | Contraction force of the myocardium, percentage of variation (anesthetized dog; i.v., dose 0.5 mg/kg): 0% | Systolic arterial pressure, percentage of variation (anesthetized dog; i.v., dose 0.5 mg/kg): +4% | Systolic volume, percentage of variation (anesthetized dog; i.v., dose 0.5 mg/kg): 0% | (dp/dt)l/p, percentage of variation (anesthetized dog; i.v., dose +1 mg/kg): -7% | Cardiac flow, percentage of variation (anesthetized dog; i.v., dose +1 mg/kg): -5% | Cardiac frequency, percentage of variation (anesthetized dog; i.v., dose +1 mg/kg): -8% | Contraction force of the myocardium, percentage of variation (anesthetized dog; i.v., dose +1 mg/kg): 0% | Systolic arterial pressure, percentage of variation (anesthetized dog; i.v., dose +1 mg/kg): 0% | Systolic volume, percentage of variation (anesthetized dog; i.v., dose +1 mg/kg): +3% | (dp/dt)l/p, percentage of variation (anesthetized dog; i.v., dose +3 mg/kg): -30% | Cardiac flow, percentage of variation (anesthetized dog; i.v., dose +3 mg/kg): -5% | Cardiac frequency, percentage of variation (anesthetized dog; i.v., dose +3 mg/kg): -8% | Contraction force of the myocardium, percentage of variation (anesthetized dog; i.v., dose +3 mg/kg): -20% | Systolic arterial pressure, percentage of variation (anesthetized dog; i.v., dose +3 mg/kg): 0% | Systolic volume, percentage of variation (anesthetized dog; i.v., dose +3 mg/kg): +3% | (dp/dt)l/p, percentage of variation (anesthetized dog; i.v., dose +5 mg/kg): -30% | Cardiac flow, percentage of variation (anesthetized dog; i.v., dose +5 mg/kg): -20% | Cardiac frequency, percentage of variation (anesthetized dog; i.v., dose +5 mg/kg): -8% | Contraction force of the myocardium, percentage of variation (anesthetized dog; i.v., dose +5 mg/kg): -20% | Systolic arterial pressure, percentage of variation (anesthetized dog; i.v., dose +5 mg/kg): -8% | Systolic volume, percentage of variation (anesthetized dog; i.v., dose +5 mg/kg): -12% | (dp/dt)l/p, percentage of variation (anesthetized dog; i.v., first dose of +10 mg/kg): -38% | Cardiac flow, percentage of variation (anesthetized dog; i.v., first dose of +10 mg/kg): -37% | Cardiac frequency, percentage of variation (anesthetized dog; i.v., first dose of +10 mg/kg): -8% | Contraction force of the myocardium, percentage of variation (anesthetized dog; i.v., first dose of +10 mg/kg): -10% | Systolic arterial pressure, percentage of variation (anesthetized dog; i.v., first dose of +10 mg/kg): -12% | Systolic volume, percentage of variation (anesthetized dog; i.v., first dose of +10 mg/kg): -31% | (dp/dt)l/p, percentage of variation (anesthetized dog; i.v., second dose of +10 mg/kg): -46% | Cardiac flow, percentage of variation (anesthetized dog; i.v., second dose of +10 mg/kg): -45% | Cardiac frequency, percentage of variation (anesthetized dog; i.v., second dose of +10 mg/kg): -8% | Contraction force of the myocardium, percentage of variation (anesthetized dog; i.v., second dose of +10 mg/kg): -20% | Systolic arterial pressure, percentage of variation (anesthetized dog; i.v., second dose of +10 mg/kg): -20% | Systolic volume, percentage of variation (anesthetized dog; i.v., second dose of +10 mg/kg): -40% | maximum decrease of force of ventricular myocardiac contractions (anesthetized dog; after injection of 4.5 mg/kg to 29 mg/kg): -20% | Cardiac frequency (result in words) (anesthetized dog; anesthetized dog, i.v.): drops moderately | Systolic arterial pressure (result in words) (anesthetized dog; anesthetized dog, i.v.): drops moderately | force of ventricular myocardiac contractions (result in words) (anesthetized dog; anesthetized dog, i.v.): decreases | cumulative dose after which the decrease of systolic arterial pressure appears (anesthetized dog; [7]): > 4.5 mg/kg | cumulative dose at which a 20% drop of cardiac flow is reached (anesthetized dog; [7]): greater than 9 mg/kg | inhibition at 10 µg/mL [2]: 56% | change in vivo at 10 mg/kg [3, 8]: 32% | change in vivo at 10 mg/kg [3, 9]: 44% | change in vivo at 10 mg/kg [3, 10]: 30% | local anesthesia (rabbit cornea): 100%

Clc1ccc(-c2cc(OCCCN3CCCCC3)[nH]n2)cc1 [Example 3, 3-p-Chlorphenyl-5-piperidinopropoxy-pyrazole]
LD50 [1, 6]: 700 mg/kg | inhibition at 10 µg/mL [2]: 53% | change in vivo at 10 mg/kg [3, 8]: 6% | change in vivo at 10 mg/kg [3, 9]: 46% | change in vivo at 10 mg/kg [3, 10]: 28% | ED50 [4]: 35 mg/kg | local anesthesia (rabbit cornea): 100%

c1ccc(-c2cc(OCCN3CCOCC3)[nH]n2)cc1 [Example 5, 3-Phenyl-5-morpholinoethoxy-pyrazole]
LD50 [1, 6]: 1000 mg/kg | inhibition at 10 µg/mL [2]: 12% | ED50 [4]: 79 mg/kg

Clc1ccc(-c2cc(OCCN3CCCCC3)[nH]n2)cc1 [Example 6]
LD50 [1, 6]: 500 mg/kg | inhibition at 10 µg/mL [2]: 46% | change in vivo at 3 mg/kg [3, 8]: 13% | change in vivo at 3 mg/kg [3, 9]: 18% | change in vivo at 3 mg/kg [3, 10]: 21% | local anesthesia (rabbit cornea): 100%

Clc1ccc(-c2cc(OCCN3CCCC3)[nH]n2)cc1 [Example 7]
LD50 [1, 5]: 280 mg/kg | LD50 [1, 6]: 1000 mg/kg | inhibition at 10 µg/mL [2]: 45% | change in vivo at 10 mg/kg [3, 8]: 11% | change in vivo at 10 mg/kg [3, 9]: 32% | change in vivo at 10 mg/kg [3, 10]: 45% | ED50 [4]: 66 mg/kg | local anesthesia (rabbit cornea): 100%

CN(C)CCCOc1cc(-c2ccccc2)[nH]n1 [Example 8]
LD50 [1, 6]: 1000 mg/kg

Cc1c(-c2ccccc2)n[nH]c1OCCN1CCCCC1 [Example 11]
LD50 [1, 5]: 184 mg/kg | LD50 [1, 6]: 250 to 500 mg/kg | inhibition at 10 µg/mL [2]: 52% | change in vivo at 10 mg/kg [3, 8]: 10% | change in vivo at 10 mg/kg [3, 9]: 18% | change in vivo at 10 mg/kg [3, 10]: 11% | ED50 [4]: 42.5 mg/kg

c1ccc(-c2cc(OCCN3CCCC3)[nH]n2)cc1 [Example 12]
LD50 [1, 6]: 500 to 1000 mg/kg | inhibition at 10 µg/mL [2]: 35%

c1ccc(-c2cc(OCCCN3CCCCC3)[nH]n2)cc1 [Example 13]
LD50 [1, 6]: 125 to 250 mg/kg | inhibition at 10 µg/mL [2]: 44%

Cc1c(-c2ccccc2)n[nH]c1OCCCN1CCCCC1 [Example 14]
LD50 [1, 6]: 250 mg/kg | Cardiac frequency (result in words) (anesthetized dog; anesthetized dog, i.v.): drops moderately | Systolic arterial pressure (result in words) (anesthetized dog; anesthetized dog, i.v.): drops moderately | force of ventricular myocardiac contractions (result in words) (anesthetized dog; anesthetized dog, i.v.): does not vary significantly | inhibition at 10 µg/mL [2]: 40% | ED50 [4]: 62 mg/kg

Cc1c(-c2ccccc2)n[nH]c1OCCCN(C)C [Example 15]
LD50 [1, 6]: 500 to 1000 mg/kg | inhibition at 10 µg/mL [2]: 40%

Cc1c(-c2ccc(Cl)cc2)n[nH]c1OCCN1CCOCC1 [Example 16]
LD50 [1, 5]: 125 to 250 mg/kg | LD50 [1, 6]: 500 to 1000 mg/kg | inhibition at 10 µg/mL [2]: 28%

Cc1c(-c2ccc(Cl)cc2)n[nH]c1OCCCN(C)C [Example 17]
LD50 [1, 5]: 250 to 500 mg/kg | LD50 [1, 6]: 500 to 1000 mg/kg | inhibition at 10 µg/mL [2]: 32%

Cc1c(-c2ccc(Cl)cc2)n[nH]c1OCCN1CCCC1 [Example 18]
LD50 [1, 6]: 750 mg/kg | inhibition at 10 µg/mL [2]: 45% | change in vivo at 10 mg/kg [3, 8]: 2% | change in vivo at 10 mg/kg [3, 9]: 0% | change in vivo at 10 mg/kg [3, 10]: 6%

Cc1c(-c2ccc(Cl)cc2)n[nH]c1OCCCN1CCCCC1 [Example 19]
LD50 [1, 5]: 62 to 125 mg/kg | LD50 [1, 6]: 250 mg/kg | Cardiac frequency (result in words) (anesthetized dog; anesthetized dog, i.v.): does not change | Systolic arterial pressure (result in words) (anesthetized dog; anesthetized dog, i.v.): drops moderately | force of ventricular myocardiac contractions (result in words) (anesthetized dog; anesthetized dog, i.v.): decreases | cumulative dose at which a 20% drop of cardiac flow is reached (anesthetized dog; [7]): greater than 4 mg/kg | inhibition at 10 µg/mL [2]: 52% | change in vivo at 10 mg/kg [3, 8]: 15% | change in vivo at 10 mg/kg [3, 9]: 35% | change in vivo at 10 mg/kg [3, 10]: 15% | ED50 [4]: 21.5 mg/kg
